Assay results from patent publication US12077503B2, “Substituted cyclic amides and their use as herbicides” (FMC CORPORATION, priority 2015, dated 2024).

What was measured:
Format in all cases: in vivo
[1] = test system: barnyardgrass (Echinochloa crus-galli); experiment: Test G Pre-Emergence Protocol; details: Echinochloa crus-galli, pre-emergence, 312 h, evaluated after 13 days; for pest or weed control at 15.625 g/ha: 15.625 g ai/ha; for pest or weed control at 15.625 g/ha / pest or weed control at 250 g/ha: read-out: Barnyardgrass damage rating (100=total damage to plant; 0=no damage to plant); for pest or weed control at 62.5 g/ha: 62.5 g ai/ha, 100=total damage to plant, 0=no damage to plant, read-out: Barnyardgrass damage rating; for pest or weed control at 250 g/ha: 250 g ai/ha
In short: (§1)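 Test compound in 0.5% Tween 20 acetone/water (50:50) was applied at three rates (15.625, 62.5, 250 g/ha) to soil sown one day earlier. After 13 days plants were scored for injury, where 0 means unaffected and 100 means completely damaged.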

corn (Zea mays) [2] = experiment: Test G Pre-Emergence Protocol; details: Zea mays, pre-emergence, 312 h, evaluated after 13 days; for plant injury at 15.625 g/ha: 15.625 g ai/ha; for plant injury at 15.625 g/ha / plant injury at 250 g/ha: read-out: Corn damage rating (100=total damage to plant; 0=no damage to plant); for plant injury at 62.5 g/ha: 62.5 g ai/ha, 100=total damage to plant, 0=no damage to plant, read-out: Corn damage rating; for plant injury at 250 g/ha: 250 g ai/ha
In short: as §1

[3] = test system: giant foxtail (Setaria faberi); experiment: Test G Pre-Emergence Protocol; details: Setaria faberi, pre-emergence, 312 h, evaluated after 13 days; for pest or weed control at 15.625 g/ha: 15.625 g ai/ha; for pest or weed control at 15.625 g/ha / pest or weed control at 250 g/ha: read-out: Foxtail, Giant damage rating (100=total damage to plant; 0=no damage to plant); for pest or weed control at 62.5 g/ha: 62.5 g ai/ha, 100=total damage to plant, 0=no damage to plant, read-out: Foxtail, Giant damage rating; for pest or weed control at 250 g/ha: 250 g ai/ha
In short: as §1

[4] = test system: ivy-leaved morning glory (Ipomoea hederacea); experiment: Test G Pre-Emergence Protocol; details: Ipomoea, pre-emergence, 312 h, evaluated after 13 days; for pest or weed control at 15.625 g/ha: 15.625 g ai/ha; for pest or weed control at 15.625 g/ha / pest or weed control at 250 g/ha: read-out: Morningglory, Ivy-leaved damage rating (100=total damage to plant; 0=no damage to plant); for pest or weed control at 62.5 g/ha: 62.5 g ai/ha, 100=total damage to plant, 0=no damage to plant, read-out: Morningglory, Ivy-leaved damage rating; for pest or weed control at 250 g/ha: 250 g ai/ha
In short: as §1

[5] = test system: redroot pigweed (Amaranthus retroflexus); experiment: Test G Pre-Emergence Protocol; details: Amaranthus retroflexus, pre-emergence, 312 h, evaluated after 13 days; for pest or weed control at 15.625 g/ha: 15.625 g ai/ha; for pest or weed control at 15.625 g/ha / pest or weed control at 250 g/ha: read-out: Pigweed, Redroot damage rating (100=total damage to plant; 0=no damage to plant); for pest or weed control at 62.5 g/ha: 62.5 g ai/ha, 100=total damage to plant, 0=no damage to plant, read-out: Pigweed, Redroot damage rating; for pest or weed control at 250 g/ha: 250 g ai/ha
In short: as §1

[6] = test system: velvetleaf (Abutilon theophrasti); experiment: Test G Pre-Emergence Protocol; details: Abutilon theophrasti, pre-emergence, 312 h, evaluated after 13 days; for pest or weed control at 15.625 g/ha: 15.625 g ai/ha; for pest or weed control at 15.625 g/ha / pest or weed control at 250 g/ha: read-out: Velvetleaf damage rating (100=total damage to plant; 0=no damage to plant); for pest or weed control at 62.5 g/ha: 62.5 g ai/ha, 100=total damage to plant, 0=no damage to plant, read-out: Velvetleaf damage rating; for pest or weed control at 250 g/ha: 250 g ai/ha
In short: as §1

[7] = test system: barnyardgrass (Echinochloa crus-galli); experiment: Test G Post-Emergence Protocol; details: Echinochloa crus-galli, post-emergence, 312 h, read-out: Barnyardgrass damage rating; for pest or weed control at 15.625 g/ha: 15.625 g ai/ha, evaluated after 13 days (100=total damage to plant; 0=no damage to plant); for pest or weed control at 62.5 g/ha: 62.5 g ai/ha; for pest or weed control at 62.5 g/ha / pest or weed control at 250 g/ha: evaluated after 13 days, 100=total damage to plant, 0=no damage to plant; for pest or weed control at 250 g/ha: 250 g ai/ha
In short: (§2)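 Foliar application was made 8 days after sowing, using an aqueous spray of the active in acetone/water (50:50) with 0.5% Tween 20, at doses of 15.625, 62.5 or 250 g/ha. Injury was assessed 13 days later, where 100 meant the plant was fully damaged.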

corn (Zea mays) [8] = experiment: Test G Post-Emergence Protocol; details: Zea mays, post-emergence, 312 h, read-out: Corn damage rating; for plant injury at 15.625 g/ha: 15.625 g ai/ha, evaluated after 13 days (100=total damage to plant; 0=no damage to plant); for plant injury at 62.5 g/ha: 62.5 g ai/ha; for plant injury at 62.5 g/ha / plant injury at 250 g/ha: evaluated after 13 days, 100=total damage to plant, 0=no damage to plant; for plant injury at 250 g/ha: 250 g ai/ha
In short: as §2

[9] = test system: giant foxtail (Setaria faberi); experiment: Test G Post-Emergence Protocol; details: Setaria faberi, post-emergence, 312 h, read-out: Foxtail, Giant damage rating; for pest or weed control at 15.625 g/ha: 15.625 g ai/ha, evaluated after 13 days (100=total damage to plant; 0=no damage to plant); for pest or weed control at 62.5 g/ha: 62.5 g ai/ha; for pest or weed control at 62.5 g/ha / pest or weed control at 250 g/ha: evaluated after 13 days, 100=total damage to plant, 0=no damage to plant; for pest or weed control at 250 g/ha: 250 g ai/ha
In short: as §2

[10] = test system: ivy-leaved morning glory (Ipomoea hederacea); experiment: Test G Post-Emergence Protocol; details: Ipomoea, post-emergence, 312 h, read-out: Morningglory, Ivy-leaved damage rating; for pest or weed control at 15.625 g/ha: 15.625 g ai/ha, evaluated after 13 days (100=total damage to plant; 0=no damage to plant); for pest or weed control at 62.5 g/ha: 62.5 g ai/ha; for pest or weed control at 62.5 g/ha / pest or weed control at 250 g/ha: evaluated after 13 days, 100=total damage to plant, 0=no damage to plant; for pest or weed control at 250 g/ha: 250 g ai/ha
In short: as §2

[11] = test system: redroot pigweed (Amaranthus retroflexus); experiment: Test G Post-Emergence Protocol; details: Amaranthus retroflexus, post-emergence, 312 h, read-out: Pigweed, Redroot damage rating; for pest or weed control at 15.625 g/ha: 15.625 g ai/ha, evaluated after 13 days (100=total damage to plant; 0=no damage to plant); for pest or weed control at 62.5 g/ha: 62.5 g ai/ha; for pest or weed control at 62.5 g/ha / pest or weed control at 250 g/ha: evaluated after 13 days, 100=total damage to plant, 0=no damage to plant; for pest or weed control at 250 g/ha: 250 g ai/ha
In short: as §2

[12] = test system: velvetleaf (Abutilon theophrasti); experiment: Test G Post-Emergence Protocol; details: Abutilon theophrasti, post-emergence, 312 h, read-out: Velvetleaf damage rating; for pest or weed control at 15.625 g/ha: 15.625 g ai/ha, evaluated after 13 days (100=total damage to plant; 0=no damage to plant); for pest or weed control at 62.5 g/ha: 62.5 g ai/ha; for pest or weed control at 62.5 g/ha / pest or weed control at 250 g/ha: evaluated after 13 days, 100=total damage to plant, 0=no damage to plant; for pest or weed control at 250 g/ha: 250 g ai/ha
In short: as §2

SMILES	pest or weed control at 15.625 g/ha [1] [%]	pest or weed control at 62.5 g/ha [1] [%]	pest or weed control at 250 g/ha [1] [%]	plant injury at 15.625 g/ha (corn (Zea mays) [2]) [%]	plant injury at 62.5 g/ha (corn (Zea mays) [2]) [%]	plant injury at 250 g/ha (corn (Zea mays) [2]) [%]	pest or weed control at 15.625 g/ha [3] [%]	pest or weed control at 62.5 g/ha [3] [%]	pest or weed control at 250 g/ha [3] [%]	pest or weed control at 15.625 g/ha [4] [%]	pest or weed control at 62.5 g/ha [4] [%]	pest or weed control at 250 g/ha [4] [%]	pest or weed control at 15.625 g/ha [5] [%]	pest or weed control at 62.5 g/ha [5] [%]	pest or weed control at 250 g/ha [5] [%]	pest or weed control at 15.625 g/ha [6] [%]	pest or weed control at 62.5 g/ha [6] [%]	pest or weed control at 250 g/ha [6] [%]	pest or weed control at 15.625 g/ha [7] [%]	pest or weed control at 62.5 g/ha [7] [%]	also measured
CN1C[C@H](c2cccc(C(F)(F)F)c2)[C@@H](C(=O)Nc2cccc(O)c2F)C1=O (racemic) [Compound 1806]	0	10	20	0	0	0	20	20	30	0	0	0	0	0	10	0	0	0	0	20	pest or weed control at 250 g/ha [7]: 50%; plant injury at 15.625 g/ha (corn (Zea mays) [8]): 0%; plant injury at 62.5 g/ha (corn (Zea mays) [8]): 0%; plant injury at 250 g/ha (corn (Zea mays) [8]): 40%; pest or weed control at 15.625 g/ha [9]: 0%; pest or weed control at 62.5 g/ha [9]: 60%; pest or weed control at 250 g/ha [9]: 60%; pest or weed control at 15.625 g/ha [10]: 0%; pest or weed control at 62.5 g/ha [10]: 0%; pest or weed control at 250 g/ha [10]: 0%; pest or weed control at 15.625 g/ha [11]: 0%; pest or weed control at 62.5 g/ha [11]: 0%; pest or weed control at 250 g/ha [11]: 0%; pest or weed control at 15.625 g/ha [12]: 0%; pest or weed control at 62.5 g/ha [12]: 0%; pest or weed control at 250 g/ha [12]: 0%
Cc1cc(C2CN(C)C(=O)C2C(=O)Nc2cccc(F)c2F)cc(Cl)c1F (centres unmarked) [Compound 1708]	20	30	60	0	0	0	60	80	90	0	0	20	0	0	0	0	0	0	40	50	pest or weed control at 250 g/ha [7]: 80%; plant injury at 15.625 g/ha (corn (Zea mays) [8]): 10%; plant injury at 62.5 g/ha (corn (Zea mays) [8]): 30%; plant injury at 250 g/ha (corn (Zea mays) [8]): 70%; pest or weed control at 15.625 g/ha [9]: 40%; pest or weed control at 62.5 g/ha [9]: 60%; pest or weed control at 250 g/ha [9]: 60%; pest or weed control at 15.625 g/ha [10]: 20%; pest or weed control at 62.5 g/ha [10]: 20%; pest or weed control at 250 g/ha [10]: 20%; pest or weed control at 15.625 g/ha [11]: 0%; pest or weed control at 62.5 g/ha [11]: 0%; pest or weed control at 250 g/ha [11]: 0%; pest or weed control at 15.625 g/ha [12]: 0%; pest or weed control at 62.5 g/ha [12]: 0%; pest or weed control at 250 g/ha [12]: 0%
COC(=O)c1cc([C@H]2CN(C)C(=O)[C@@H]2C(=O)Nc2ccccc2F)ccc1F (racemic) [Compound 1682]	0	0	0	0	0	0	0	0	0	0	0	0	0	0	0	0	0	0	0	0	pest or weed control at 250 g/ha [7]: 0%; plant injury at 15.625 g/ha (corn (Zea mays) [8]): 0%; plant injury at 62.5 g/ha (corn (Zea mays) [8]): 0%; plant injury at 250 g/ha (corn (Zea mays) [8]): 0%; pest or weed control at 15.625 g/ha [9]: 0%; pest or weed control at 62.5 g/ha [9]: 0%; pest or weed control at 15.625 g/ha [10]: 0%; pest or weed control at 62.5 g/ha [10]: 0%; pest or weed control at 250 g/ha [10]: 0%; pest or weed control at 15.625 g/ha [11]: 0%; pest or weed control at 62.5 g/ha [11]: 0%; pest or weed control at 250 g/ha [11]: 0%; pest or weed control at 15.625 g/ha [12]: 0%; pest or weed control at 62.5 g/ha [12]: 0%; pest or weed control at 250 g/ha [12]: 0%
